# Data published in PubChem BioAssay (NCI).
#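 How tested: cells in 96-well plates exposed to compound for 48 hours at five concentrations. GI50: concentration for 50% inhibition of growth. Definition used: TGI = concentration required for complete inhibition of growth.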
# How the values were obtained:
# Assay in all cases: DTP human tumour cell line panel, 48 h
# OVCAR-5 ovarian = tested on: OVCAR-5 ovarian
# EKVX NSCLC = tested on: EKVX NSCLC
# M14 melanoma = tested on: M14 melanoma
# RXF 393 renal = tested on: RXF 393 renal
# HOP-92 NSCLC = tested on: HOP-92 NSCLC
# SK-MEL-28 melanoma = tested on: SK-MEL-28 melanoma
# SNB-19 CNS = tested on: SNB-19 CNS
# OVCAR-3 ovarian = tested on: OVCAR-3 ovarian
# K-562 leukemia = tested on: K-562 leukemia
# SF-268 CNS = tested on: SF-268 CNS
# SW-620 colon = tested on: SW-620 colon
# LOX IMVI melanoma = tested on: LOX IMVI melanoma
# MALME-3M melanoma = tested on: MALME-3M melanoma
# SF-539 CNS = tested on: SF-539 CNS
# NCI-H23 lung = tested on: NCI-H23 lung
# OVCAR-4 ovarian = tested on: OVCAR-4 ovarian
# HOP-62 NSCLC = tested on: HOP-62 NSCLC
# RPMI-8226 leukemia = tested on: RPMI-8226 leukemia
# A549 NSCLC = tested on: A549 NSCLC
# CCRF-CEM leukemia = tested on: CCRF-CEM leukemia
# NCI-H522 lung = tested on: NCI-H522 lung
# UACC-62 melanoma = tested on: UACC-62 melanoma
# IGROV1 ovarian = tested on: IGROV1 ovarian
# PC-3 prostate = tested on: PC-3 prostate
# 786-0 renal = tested on: 786-0 renal
# HCT-15 colon = tested on: HCT-15 colon
# CAKI-1 renal = tested on: CAKI-1 renal
# MDA-MB-435 = tested on: MDA-MB-435
# HS 578T breast = tested on: HS 578T breast
# SNB-75 CNS = tested on: SNB-75 CNS
# U251 CNS = tested on: U251 CNS
# NCI/ADR-RES ovarian = tested on: NCI/ADR-RES ovarian
# SR leukemia = tested on: SR leukemia
# SN12C renal = tested on: SN12C renal
# HCT-116 colon = tested on: HCT-116 colon
# KM12 colon = tested on: KM12 colon
# SK-OV-3 ovarian = tested on: SK-OV-3 ovarian
# MOLT-4 leukemia = tested on: MOLT-4 leukemia
# BT-549 breast = tested on: BT-549 breast
# TK-10 renal = tested on: TK-10 renal
# ACHN renal = tested on: ACHN renal
# UO-31 renal = tested on: UO-31 renal
# T-47D breast = tested on: T-47D breast
# SK-MEL-2 melanoma = tested on: SK-MEL-2 melanoma
# UACC-257 melanoma = tested on: UACC-257 melanoma
# NCI-H226 lung = tested on: NCI-H226 lung
# SK-MEL-5 melanoma = tested on: SK-MEL-5 melanoma
# COLO 205 colon = tested on: COLO 205 colon
# OVCAR-8 ovarian = tested on: OVCAR-8 ovarian
# A498 renal = tested on: A498 renal
# HT29 colon = tested on: HT29 colon
# NCI-H460 lung = tested on: NCI-H460 lung
# MDA-MB-231 breast = tested on: MDA-MB-231 breast
# HCC-2998 colon = tested on: HCC-2998 colon
# SF-295 CNS = tested on: SF-295 CNS
# DU-145 prostate = tested on: DU-145 prostate
# MCF7 breast = tested on: MCF7 breast
compound,measurement,setting,value
COc1cc2c3c(n(CCCN(C)C)c(=O)c2cc1OC)-c1ccccc1C3=O,GI50,OVCAR-5 ovarian,> 91.6 µM
same,TGI,OVCAR-5 ovarian,> 100 µM
same,GI50,EKVX NSCLC,> 43.7 µM
same,TGI,EKVX NSCLC,> 72.7 µM
same,GI50,M14 melanoma,3.83 µM
same,TGI,M14 melanoma,> 88.2 µM
same,GI50,RXF 393 renal,6.68 µM
same,TGI,RXF 393 renal,24.7 µM
same,GI50,HOP-92 NSCLC,23.2 µM
same,TGI,HOP-92 NSCLC,> 100 µM
same,GI50,SK-MEL-28 melanoma,8.5 µM
same,TGI,SK-MEL-28 melanoma,> 65 µM
same,GI50,SNB-19 CNS,8.28 µM
same,TGI,SNB-19 CNS,> 71.3 µM
same,GI50,OVCAR-3 ovarian,5.83 µM
same,TGI,OVCAR-3 ovarian,54.8 µM
same,GI50,K-562 leukemia,4.39 µM
same,TGI,K-562 leukemia,24.4 µM
same,GI50,SF-268 CNS,7.69 µM
same,TGI,SF-268 CNS,> 100 µM
same,GI50,SW-620 colon,2.11 µM
same,TGI,SW-620 colon,66 µM
same,GI50,LOX IMVI melanoma,4.66 µM
same,TGI,LOX IMVI melanoma,19.2 µM
same,GI50,MALME-3M melanoma,7.38 µM
same,TGI,MALME-3M melanoma,> 100 µM
same,GI50,SF-539 CNS,4.47 µM
same,TGI,SF-539 CNS,28.7 µM
same,GI50,NCI-H23 lung,10.6 µM
same,TGI,NCI-H23 lung,> 72 µM
same,GI50,OVCAR-4 ovarian,6.68 µM
same,TGI,OVCAR-4 ovarian,53.5 µM
same,GI50,HOP-62 NSCLC,3.57 µM
same,TGI,HOP-62 NSCLC,> 89.8 µM
same,GI50,RPMI-8226 leukemia,0.238 µM
same,TGI,RPMI-8226 leukemia,1.53 µM
same,GI50,A549 NSCLC,10.3 µM
same,TGI,A549 NSCLC,> 54.6 µM
same,GI50,CCRF-CEM leukemia,0.24 µM
same,TGI,CCRF-CEM leukemia,1.73 µM
same,GI50,NCI-H522 lung,5.59 µM
same,TGI,NCI-H522 lung,> 100 µM
same,GI50,UACC-62 melanoma,1.48 µM
same,TGI,UACC-62 melanoma,19.1 µM
same,GI50,IGROV1 ovarian,1.61 µM
same,TGI,IGROV1 ovarian,> 51.7 µM
same,GI50,PC-3 prostate,9.02 µM
same,TGI,PC-3 prostate,> 48.7 µM
same,GI50,786-0 renal,16 µM
same,TGI,786-0 renal,73.9 µM
same,GI50,HCT-15 colon,17.8 µM
same,TGI,HCT-15 colon,> 53.3 µM
same,GI50,CAKI-1 renal,12.7 µM
same,TGI,CAKI-1 renal,> 77.9 µM
same,GI50,MDA-MB-435,19.1 µM
same,TGI,MDA-MB-435,> 100 µM
same,GI50,HS 578T breast,99.7 µM
same,TGI,HS 578T breast,> 100 µM
same,GI50,SNB-75 CNS,6.9 µM
same,TGI,SNB-75 CNS,> 100 µM
same,GI50,U251 CNS,12.2 µM
same,TGI,U251 CNS,> 55.9 µM
same,GI50,NCI/ADR-RES ovarian,5.94 µM
same,TGI,NCI/ADR-RES ovarian,> 49.1 µM
same,GI50,SR leukemia,0.184 µM
same,TGI,SR leukemia,1.82 µM
same,GI50,SN12C renal,7.16 µM
same,TGI,SN12C renal,72.3 µM
same,GI50,HCT-116 colon,3.71 µM
same,TGI,HCT-116 colon,16.6 µM
same,GI50,KM12 colon,5.61 µM
same,TGI,KM12 colon,41.9 µM
same,GI50,SK-OV-3 ovarian,29.4 µM
same,TGI,SK-OV-3 ovarian,> 100 µM
same,GI50,MOLT-4 leukemia,0.463 µM
same,TGI,MOLT-4 leukemia,1.73 µM
same,GI50,BT-549 breast,21.4 µM
same,TGI,BT-549 breast,> 100 µM
same,GI50,TK-10 renal,38 µM
same,TGI,TK-10 renal,> 100 µM
same,GI50,ACHN renal,6.9 µM
same,TGI,ACHN renal,20.8 µM
same,GI50,UO-31 renal,16.7 µM
same,TGI,UO-31 renal,97.7 µM
same,GI50,T-47D breast,30.8 µM
same,TGI,T-47D breast,> 100 µM
same,GI50,SK-MEL-2 melanoma,> 100 µM
same,TGI,SK-MEL-2 melanoma,> 100 µM
same,GI50,UACC-257 melanoma,> 100 µM
same,TGI,UACC-257 melanoma,> 100 µM
same,GI50,NCI-H226 lung,18.6 µM
same,TGI,NCI-H226 lung,> 100 µM
same,GI50,SK-MEL-5 melanoma,10.1 µM
same,TGI,SK-MEL-5 melanoma,47 µM
same,GI50,COLO 205 colon,1.04 µM
same,TGI,COLO 205 colon,> 100 µM
same,GI50,OVCAR-8 ovarian,7.87 µM
same,TGI,OVCAR-8 ovarian,> 100 µM
same,GI50,A498 renal,24.7 µM
same,TGI,A498 renal,> 73.9 µM
same,GI50,HT29 colon,0.738 µM
same,TGI,HT29 colon,16.6 µM
same,GI50,NCI-H460 lung,3.51 µM
same,TGI,NCI-H460 lung,21.6 µM
same,GI50,MDA-MB-231 breast,10.6 µM
same,TGI,MDA-MB-231 breast,23.6 µM
same,GI50,HCC-2998 colon,3.17 µM
same,TGI,HCC-2998 colon,18.6 µM
same,GI50,SF-295 CNS,1.26 µM
same,GI50,DU-145 prostate,5.05 µM
same,TGI,DU-145 prostate,24.7 µM
same,GI50,MCF7 breast,2.34 µM
same,TGI,MCF7 breast,> 53.4 µM
